In patent US11357811B2, “Methods to isolate anti-microbials from fruit or seed extracts” (priority 2012, dated 2022):

Tests used:
vaccinia virus = type: cell-based
poliovirus 1 = type: cell-based
influenza A/H1N1 = type: cell-based
[1] = system: human parainfluenza 3 virus (HPIV3); assay: antiviral testing against human parainfluenza 3 virus; type: cell-based; conditions: commercially available preparation; 100 ng/mL-100 μg/mL
herpes simplex virus-1 = type: cell-based
[2] = at 1-100 μg/mL

SMILES | anti-viral activity against vaccinia virus (vaccinia virus) | anti-viral activity against poliovirus Sabin-1 (poliovirus 1) | anti-viral activity against influenza A/California/July/2009 (H1N1) (influenza A/H1N1) | anti-viral activity against parainfluenza virus-3 [1] | anti-viral activity against herpes simplex virus-1 (herpes simplex virus-1) | influenza A/H1N1 inhibition by hemagglutination read-out (influenza A/H1N1) | anti-viral activity against vaccinia virus (in words) (vaccinia virus) | toxicity [2]
COc1cc(C=CC(=O)O)cc(OC)c1O (stereo in doubt) [sinapinic acid] | None of the compounds showed anti-viral activity | None of the compounds showed anti-viral activity | None of the compounds showed anti-viral activity | None of the compounds showed anti-viral activity | None of the compounds showed anti-viral activity |  |  | 
CCOC(=O)C1=C[C@@H](OC(CC)CC)[C@H](NC(C)=O)[C@@H](N)C1 [Tamiflu] |  |  |  |  |  | effective viral inhibition |  | 
O=c1c(O[C@@H]2O[C@H](CO)[C@H](O)[C@H](O)[C@H]2O)c(-c2cc(O)c(O)c(O)c2)oc2cc(O)cc(O)c12 [myricetin-beta-3-galactoside] | None of the compounds showed anti-viral activity | None of the compounds showed anti-viral activity | None of the compounds showed anti-viral activity | None of the compounds showed anti-viral activity | None of the compounds showed anti-viral activity |  |  | 
Oc1cc(O)c2c(c1)O[C@@]1(c3ccc(O)c(O)c3)Oc3cc(O)c4c(c3[C@@H]2[C@H]1O)O[C@H](c1ccc(O)c(O)c1)[C@H](O)C4 [procyanidin A2] | None of the compounds showed anti-viral activity | None of the compounds showed anti-viral activity | None of the compounds showed anti-viral activity | None of the compounds showed anti-viral activity | None of the compounds showed anti-viral activity |  |  | 
O=c1c(O[C@@H]2O[C@H](CO)[C@H](O)[C@H](O)[C@H]2O)c(-c2ccc(O)c(O)c2)oc2cc(O)cc(O)c12 [quercetin-β-3-galactoside] |  |  |  |  |  |  | core) was found to be inactive. | 
CC(C)[C@]12O[C@H]1[C@@H]1O[C@]13[C@]1(O[C@H]1C[C@H]1C4=C(CC[C@@]13C)C(=O)OC4)[C@@H]2O [triptolide] | None of the compounds showed anti-viral activity | None of the compounds showed anti-viral activity | None of the compounds showed anti-viral activity | None of the compounds showed anti-viral activity | None of the compounds showed anti-viral activity |  |  | toxic
